Laboratory results published in patent US11660300B2, “Method of maintaining oral health in animals” (Boehringer Ingelheim Animal Health USA Inc., priority 2006, dated 2023).

How the values were obtained:
Assay type in all cases: in vivo
[1] = tested on: calculus formation; test: Calculus formation in beagle dogs given delmopinol dog snack; details: for Number of teeth with calculus on the buccal surfaces of the teeth of the upper jaw: dogs 1-4 and Sum
Method: (§1) A study was carried out to investigate the effect of dog snacks containing delmopinol on gingivitis and calculus formation in beagle dogs. Eight female dogs were used in the study. […] During a pre-experimental period of four weeks, the teeth in the upper jaws of all dogs were scaled and polished professionally with a rubber cup, pumice and water, on a weekly basis. The teeth of the upper jaws were also thoroughly brushed with a toothbrush and water, for 2 minutes daily. The teeth in the lower jaws were not cleaned. During this pre-experimental period the dogs were fed a soft gingivitis-inducing diet. Using these procedures, two different clinical conditions prevailed in the dogs at the end of the pre-experimental period: in the upper jaw the gingiva was clinically healthy while in the lower jaws gingivitis prevailed. […] In the upper jaws, the presence of plaque and gingivitis was measured at the buccal surfaces of canines, first, second, third, fourth premolars and first molars. In the lower jaws the measurements were undertaken at the buccal surfaces of canines and first molars, in total […] were examined clinically. 12 surfaces were clinically healthy prior to the experimental period and 4 surfaces were not maintained with oral hygiene measures. All experimental procedures, (except the tooth brushing during the pre-experimental period) were performed with the dogs anaesthetized by intravenous Pentothal (Abbot, Belgium). […] The various measurements were taken on days 0, 14 and 28. Clinical photos were taken of the upper jaws at the same occasions as the measurements. Presence or absence of calculus was noted on the buccal surfaces of the teeth in the upper jaws.

[2] = tested on: gingivitis; test: Bleeding on probing (gingivitis) in beagle dogs given delmopinol dog snack; details: for Number of sites with gingival bleeding at the buccal surfaces: dogs 1-4 and Sum
Method: as §1, with “measurements. Bleeding on probing was scored according to Löe, H and Silness, J (1963) Periodontal disease in pregnancy. Prevalence and severity. Acta Odontologica Scandinavia 21, 533-551.” for “measurements.”, “Presence” for “Presence or absence”, “of gingivitis” for “of calculus”, “was registered if bleeding occurred within 20 seconds following gentle probing of” for “was noted on”, “buccal gingival margin.” for “buccal surfaces of the teeth in the upper jaws.”

[3] = tested on: dental plaque; test: Presence of dental plaque (erythrosine staining) in beagle dogs given delmopinol dog snack; details: for Number of sites with presence of dental plaque on the buccal surfaces: upper jaw (UJ), dogs 1-4 and Sum
Method: A study was carried out to investigate the effect of dog snacks containing delmopinol on gingivitis and calculus formation in beagle dogs. Eight female dogs were used in the study. […] During a pre-experimental period of four weeks, the teeth in the upper jaws of all dogs were scaled and polished professionally with a rubber cup, pumice and water, on a weekly basis. The teeth of the upper jaws were also thoroughly brushed with a toothbrush and water, for 2 minutes daily. The teeth in the lower jaws were not cleaned. During this pre-experimental period the dogs were fed a soft gingivitis-inducing diet. Using these procedures, two different clinical conditions prevailed in the dogs at the end of the pre-experimental period: in the upper jaw the gingiva was clinically healthy while in the lower jaws gingivitis prevailed. […] In the upper jaws, the presence of plaque and gingivitis was measured at the buccal surfaces of canines, first, second, third, fourth premolars and first molars. In the lower jaws the measurements were undertaken at the buccal surfaces of canines and first molars, in total […] were examined clinically. 12 surfaces were clinically healthy prior to the experimental period and 4 surfaces were not maintained with oral hygiene measures. All experimental procedures, (except the tooth brushing during the pre-experimental period) were performed with the dogs anaesthetized by intravenous Pentothal (Abbot, Belgium). […] The various measurements were taken on days 0, 14 and 28. Clinical photos were taken of the upper jaws at the same occasions as the measurements. The presence of plaque was scored following staining of the teeth with erythrosine dye. Plaque was noted if stained dental plaque was in contact with the buccal gingival margin.

## CCCC(CCC)CCCC1COCCN1CCO (stereo not drawn) [Delmopinol, 3-(4-propyl-heptyl)-4-(2-hydroxyethyl)morpholine]
[1]; Day 0 (baseline), n = 48 measured sites
  Number of teeth with calculus on the buccal surfaces of the teeth of the upper jaw: 0 teeth
[1]; Day 0 (baseline), n = 48 measured sites, listed as delmopinol
  Number of teeth with calculus on the buccal surfaces of the teeth of the upper jaw: None
[1]; Day 14, n = 48 measured sites
  Number of teeth with calculus on the buccal surfaces of the teeth of the upper jaw: 6 teeth
[1]; Day 28, n = 48 measured sites
  Number of teeth with calculus on the buccal surfaces of the teeth of the upper jaw: 37 teeth
[1]; in the presence of dental plaque and with a calculus-promoting soft diet
  calculus formation versus control: strongly reduced
[2]; Day 0 (baseline), lower jaw (LJ), n = 16
  Number of sites with gingival bleeding at the buccal surfaces: 15 sites
[2]; Day 0 (baseline), upper jaw (UJ), n = 48
  Number of sites with gingival bleeding at the buccal surfaces: one
[2]; Day 14, lower jaw (LJ), n = 16
  Number of sites with gingival bleeding at the buccal surfaces: five
[2]; Day 14, upper jaw (UJ), n = 48
  Number of sites with gingival bleeding at the buccal surfaces: 13 sites
[2]; Day 28, lower jaw (LJ), n = 16
  Number of sites with gingival bleeding at the buccal surfaces: 12 sites
[2]; Day 28, upper jaw (UJ), n = 48
  Number of sites with gingival bleeding at the buccal surfaces: 21 sites
[2]; delmopinol added in the snack, snack alone 50%, lower jaw, day 0 to day 14
  reduction of established gingivitis: 69%
[2]; paired t-test p=0.05
  increase of inflammation after stopping pre-experimental oral hygiene, versus control group: significantly less
[3]; Day 0 (baseline), n = 48 sites in sum
  Number of sites with presence of dental plaque on the buccal surfaces: 0 sites
[3]; Day 0 (baseline), n = 48 sites in sum, listed as delmopinol
  Number of sites with presence of dental plaque on the buccal surfaces: plaque free
[3]; Day 14, upper jaw
  reduction in the presence of dental plaque relative the control dogs: around 20%
[3]; Day 28 (14 days after last snack), n = 48
  Number of sites with presence of dental plaque on the buccal surfaces: all teeth
[3]; snacks with or without the tested component
  plaque accumulation: did not alter
